Molecules are shown by their SMILES. Values after ≈ are worked out from the molar mass of the structure shown. A value given as a limit tells only on which side of the number the result lay.

Common to all, as to assay type: functional
In assay [1] the test system is Aspergillus fumigatus. As to the kind of experiment: Fungicidal activity against wild type Aspergillus fumigatus AF293 assessed as radial growth on potato dextrose agar plate at 1.6 mM after 4 days.
In assay [2] the test system is Aspergillus fumigatus. As to the kind of experiment: Antifungal activity against Aspergillus fumigatus AF293.
Assay [3] concerns Aspergillus flavus. As to the kind of experiment: Fungicidal activity against wild type Aspergillus flavus NRRL3357 assessed as radial growth on potato dextrose agar plate at 1.6 mM after 4 days.
The subject of assay [4] is Aspergillus flavus. As to the kind of experiment: Fungicidal activity against wild type Aspergillus flavus NRRL3357 assessed as radial growth on potato dextrose agar plate at 6.4 mM after 4 days.
Assay [5] has as its system Aspergillus fumigatus. As to the kind of experiment: Fungicidal activity against wild type Aspergillus fumigatus AF293 assessed as radial growth on potato dextrose agar plate at 0.1 mM after 4 days.
In assay [6] the test system is Aspergillus fumigatus. As to the kind of experiment: Growth inhibition of wild type Aspergillus fumigatus AF293 at 6.4 mM after 4 days. The conditions noted are these: AF293, 96 h.
Assay [7] deals with Aspergillus flavus. As to the kind of experiment: Growth inhibition of wild type Aspergillus flavus NRRL3357 at 0.4 mM after 4 days. The conditions noted are these: NRRL3357, 96 h.
For assay [8], the system named is Saccharomyces cerevisiae. As to the kind of experiment: Antifungal activity against Saccharomyces cerevisiae bck1delta deletion mutant assessed as cell number at 1.6 mM after 48 hrs.
In assay [9] the test system is Saccharomyces cerevisiae. As to the kind of experiment: (§1) Growth inhibition of Saccharomyces cerevisiae bck1delta deletion mutant at 3.2 mM relative to control after 48 hrs.
For assay [10], the system named is Aspergillus fumigatus. As to the kind of experiment: Fungicidal activity against wild type Aspergillus fumigatus AF293 assessed as radial growth on potato dextrose agar plate at 0.4 mM after 4 days.
Assay [11] concerns Aspergillus flavus. As to the kind of experiment: Growth inhibition of wild type Aspergillus flavus NRRL3357 at 0.2 mM after 4 days. The conditions noted are these: NRRL3357, 96 h.
In assay [12] the test system is Aspergillus fumigatus. As to the kind of experiment: Growth inhibition of wild type Aspergillus fumigatus AF293 at 0.1 mM after 4 days. The conditions noted are these: AF293, 96 h.
Assay [13] deals with Saccharomyces cerevisiae. As to the kind of experiment: Antifungal activity against wild type Saccharomyces cerevisiae BY47411 assessed as cell number at 1.6 mM after 48 hrs.
The test system of assay [14] is Saccharomyces cerevisiae. As to the kind of experiment: Growth inhibition of wild type Saccharomyces cerevisiae BY47411 at 1.6 mM after 48 hrs relative to control.
Assay [15] deals with Saccharomyces cerevisiae. As to the kind of experiment: Growth inhibition of wild type Saccharomyces cerevisiae BY47411 at 3.2 mM after 48 hrs relative to control.
Assay [16] deals with Aspergillus fumigatus. As to the kind of experiment: Growth inhibition of wild type Aspergillus fumigatus AF293 at 0.8 mM after 4 days. The conditions noted are these: AF293, 96 h.
In assay [17] the test system is Aspergillus flavus. As to the kind of experiment: Growth inhibition of wild type Aspergillus flavus NRRL3357 at 1.6 mM after 4 days. The conditions noted are these: NRRL3357, 96 h.
Assay [18] relates to Aspergillus fumigatus. As to the kind of experiment: Growth inhibition of wild type Aspergillus fumigatus AF293 at 1.6 mM after 4 days. The conditions noted are these: AF293, 96 h.
The test system of assay [19] is Aspergillus fumigatus. As to the kind of experiment: Fungicidal activity against wild type Aspergillus fumigatus AF293 assessed as radial growth on potato dextrose agar plate at 3.2 mM after 4 days.
Assay [20] relates to Aspergillus fumigatus. As to the kind of experiment: Fungicidal activity against wild type Aspergillus fumigatus AF293 assessed as radial growth on potato dextrose agar plate at 6.4 mM after 4 days.
Assay [21] relates to Aspergillus flavus. As to the kind of experiment: Fungicidal activity against wild type Aspergillus flavus NRRL3357 assessed as radial growth on potato dextrose agar plate at 0.2 mM after 4 days.
Assay [22] has as its system Saccharomyces cerevisiae. As to the kind of experiment: Antifungal activity against Saccharomyces cerevisiae bck1delta deletion mutant assessed as cell number at 3.2 mM after 48 hrs.
Assay [23] concerns Aspergillus flavus. As to the kind of experiment: Growth inhibition of wild type Aspergillus flavus NRRL3357 at 3.2 mM after 4 days. The conditions noted are these: NRRL3357, 96 h.
Assay [24] concerns Aspergillus fumigatus. As to the kind of experiment: Fungicidal activity against wild type Aspergillus fumigatus AF293 assessed as radial growth on potato dextrose agar plate at 0.8 mM after 4 days.
Assay [25] relates to Aspergillus fumigatus. As to the kind of experiment: Growth inhibition of wild type Aspergillus fumigatus AF293 at 3.2 mM after 4 days. The conditions noted are these: AF293, 96 h.
The test system of assay [26] is Saccharomyces cerevisiae. As to the kind of experiment: Antifungal activity against wild type Saccharomyces cerevisiae BY47411 after 24 hrs.
Assay [27] relates to Saccharomyces cerevisiae. Described as §1. This is another data set of the same source.
For assay [28], the system named is Aspergillus flavus. As to the kind of experiment: Fungicidal activity against wild type Aspergillus flavus NRRL3357 assessed as radial growth on potato dextrose agar plate at 3.2 mM after 4 days.
Assay [29] concerns Aspergillus fumigatus. As to the kind of experiment: Fungicidal activity against wild type Aspergillus fumigatus AF293 assessed as radial growth on potato dextrose agar plate at 0.2 mM after 4 days.
The test system of assay [30] is Saccharomyces cerevisiae. As to the kind of experiment: Growth inhibition of wild type Saccharomyces cerevisiae BY47411 at 6.4 mM after 48 hrs relative to control.
Assay [31] deals with Aspergillus flavus. As to the kind of experiment: Antifungal activity against Aspergillus flavus NRRL3357.
The test system of assay [32] is Saccharomyces cerevisiae. As to the kind of experiment: Antifungal activity against wild type Saccharomyces cerevisiae BY47411 assessed as cell number at 6.4 mM after 48 hrs.
For assay [33], the system named is Aspergillus flavus. As to the kind of experiment: Fungicidal activity against wild type Aspergillus flavus NRRL3357 assessed as radial growth on potato dextrose agar plate at 0.8 mM after 4 days.
In assay [34] the test system is Saccharomyces cerevisiae. As to the kind of experiment: Growth inhibition of wild type Saccharomyces cerevisiae BY47411 at 5 mM after 48 hrs relative to control.
For assay [35], the system named is Saccharomyces cerevisiae. As to the kind of experiment: Antifungal activity against wild type Saccharomyces cerevisiae BY47411 assessed as cell number at 3.2 mM after 48 hrs.
The subject of assay [36] is Saccharomyces cerevisiae. As to the kind of experiment: Growth inhibition of wild type Saccharomyces cerevisiae BY47411 at 0.8 mM after 48 hrs relative to control.
The test system of assay [37] is Aspergillus flavus. As to the kind of experiment: Fungicidal activity against wild type Aspergillus flavus NRRL3357 assessed as radial growth on potato dextrose agar plate at 0.4 mM after 4 days.
Assay [38] concerns Aspergillus flavus. As to the kind of experiment: Growth inhibition of wild type Aspergillus flavus NRRL3357 at 6.4 mM after 4 days. The conditions noted are these: NRRL3357, 96 h.
The subject of assay [39] is Aspergillus flavus. As to the kind of experiment: Growth inhibition of wild type Aspergillus flavus NRRL3357 at 0.8 mM after 4 days. The conditions noted are these: NRRL3357, 96 h.
For assay [40], the system named is Aspergillus flavus. As to the kind of experiment: Growth inhibition of wild type Aspergillus flavus NRRL3357 at 0.1 mM after 4 days. The conditions noted are these: NRRL3357, 96 h.
For assay [41], the system named is Aspergillus fumigatus. As to the kind of experiment: Growth inhibition of wild type Aspergillus fumigatus AF293 at 0.4 mM after 4 days. The conditions noted are these: AF293, 96 h.
Assay [42] deals with Aspergillus flavus. As to the kind of experiment: Fungicidal activity against wild type Aspergillus flavus NRRL3357 assessed as radial growth on potato dextrose agar plate at 0.1 mM after 4 days.
Assay [43] concerns Saccharomyces cerevisiae. As to the kind of experiment: Antifungal activity against wild type Saccharomyces cerevisiae BY47411 assessed as cell number at 0.8 mM after 48 hrs.
Assay [44] deals with Aspergillus fumigatus. As to the kind of experiment: Growth inhibition of wild type Aspergillus fumigatus AF293 at 0.2 mM after 4 days. The conditions noted are these: AF293, 96 h.

For `CCCOC(=O)CCc1ccc(O)c(OC)c1` [DIHYDROFERULIC ACID PROPYL ESTER], the Activity was determined as 2.7 cm with Aspergillus fumigatus [1]; 2.3 cm in the assay with Aspergillus flavus [3]; 0 cm with Aspergillus flavus [4]; 4.7 cm with Aspergillus fumigatus [5]; 1.07 in the assay with Saccharomyces cerevisiae [8]; 4.2 cm with Aspergillus fumigatus [10]. The Activity with Saccharomyces cerevisiae [13] is 1.89; in the assay on Aspergillus fumigatus [19], 1 cm; in the assay on Aspergillus fumigatus [20], 0 cm; with Aspergillus flavus [21] it was 3.1 cm; in the assay with Saccharomyces cerevisiae [22] it was 0.32; with Aspergillus fumigatus [24], 3.9 cm. Further, the Activity with Aspergillus flavus [28] is given as 1.5 cm; in the assay on Aspergillus fumigatus [29], 4.6 cm; with Saccharomyces cerevisiae [32], 0; with Aspergillus flavus [33], 2.8 cm; in the assay on Saccharomyces cerevisiae [35] it was 0.03; in the assay on Aspergillus flavus [37], 3 cm. Also, the Activity in the assay on Aspergillus flavus [42] was found to be 3.2 cm; in the assay on Saccharomyces cerevisiae [43], 2.99. Also, the values for the MIC50 against Aspergillus fumigatus [2], against Saccharomyces cerevisiae [26] and with Aspergillus flavus [31] were 2.1 mM (≈ 500 µg/mL), 1.5 mM (≈ 357 µg/mL) and 2.9 mM (≈ 691 µg/mL), respectively. The inhibition at 6400 µM in the assay with Aspergillus fumigatus [6], in the assay on Saccharomyces cerevisiae [30] and with Aspergillus flavus [38] was 100% in each case. Also, the inhibition at 400 µM in the assay with Aspergillus flavus [7] worked out at 6.3%; in the assay with Aspergillus fumigatus [41], 10.7%. Further, the inhibition at 3200 µM with Saccharomyces cerevisiae [9] is 76.8%; in the assay on Saccharomyces cerevisiae [15], 99.3%; with Aspergillus flavus [23] it was 53.2%; with Aspergillus fumigatus [25] it was 78.8%; with Saccharomyces cerevisiae [27], 93%. For the same compound, the inhibition at 200 µM with Aspergillus flavus [11] worked out at 3.2%; with Aspergillus fumigatus [44] it was 2.2%. The inhibition at 100 µM in the assay with Aspergillus fumigatus [12] and in the assay with Aspergillus flavus [40] was 0% each time. Further, the inhibition at 1600 µM in the assay on Saccharomyces cerevisiae [14] stood at 57.4%; with Aspergillus flavus [17] it was 28.2%; with Aspergillus fumigatus [18], 42.6%. For the same compound, the results for the inhibition at 800 µM with Aspergillus fumigatus [16], in the assay with Saccharomyces cerevisiae [36] and in the assay with Aspergillus flavus [39] were 17.1%, 32.7% and 12.5%, respectively. The compound also gave an MIC90 with Saccharomyces cerevisiae [26] of 4.5 mM (≈ 1070 µg/mL). In the assay on Saccharomyces cerevisiae [34], this compound displayed an inhibition at 5000 µM of 99.4%.

`CCCCCCOC(=O)CCc1ccc(O)c(OC)c1` [HEXYLHYDROFERULATE]: the Activity came out at 2.74 with Saccharomyces cerevisiae [13], 0.28 in the assay on Saccharomyces cerevisiae [32], 1 in the assay on Saccharomyces cerevisiae [35] and 3.61 in the assay with Saccharomyces cerevisiae [43]. In addition, at 1600 µM the inhibition in the assay with Saccharomyces cerevisiae [14] was 38.3%. The compound also returned an inhibition at 3200 µM in the assay with Saccharomyces cerevisiae [15] of 77.5%. Moreover, the inhibition at 6400 µM in the assay on Saccharomyces cerevisiae [30] stood at 93.7%. Further, in the assay on Saccharomyces cerevisiae [34], at 5000 µM the inhibition was 18.8%. Also, 800 µM produced 18.7% inhibition with Saccharomyces cerevisiae [36].

In the assay with Saccharomyces cerevisiae [26], `COC(=O)CCc1ccc(O)c(OC)c1` [DIHYDROFERULIC ACID METHYL ESTER] yielded an MIC50 of 2.1 mM (≈ 441 µg/mL) and an MIC90 of 5.6 mM (≈ 1180 µg/mL). This compound showed an inhibition at 5000 µM with Saccharomyces cerevisiae [34] of 100%.

In turn, `CCCCCCCCCCOC(=O)CCc1ccc(O)c(OC)c1` [DIHYDROFERULIC ACID DECYL ESTER] gave an inhibition at 5000 µM with Saccharomyces cerevisiae [34] of 2.8%.

As to `CCCCCCCCOC(=O)CCc1ccc(O)c(OC)c1` [DIHYDROFERULIC ACID OCTYL ESTER], the inhibition at 5000 µM in the assay with Saccharomyces cerevisiae [34] was determined as 6.2%.

In the assay on Saccharomyces cerevisiae [26], `COc1cc(CCC(=O)O)ccc1O` [DIHYDROFERULIC ACID] yielded an MIC50 of 6.4 mM (≈ 1260 µg/mL). In addition, in the assay with Saccharomyces cerevisiae [34], at 5000 µM the inhibition was 6.4%.

With `CCOC(=O)CCc1ccc(O)c(OC)c1` [DIHYDROFERULIC ACID ETHYL ESTER], in the assay on Saccharomyces cerevisiae [26], the MIC50 amounted to 4 mM (≈ 897 µg/mL) and the MIC90 is greater than 6.4 mM. The compound further yielded an inhibition at 6400 µM in the assay on Saccharomyces cerevisiae [30] of 87%. The compound further showed an inhibition at 5000 µM in the assay with Saccharomyces cerevisiae [34] of 98.7%.
